Measurements as given in patent publication US7078499B2, “Nucleotide analogues comprising a reporter moiety and a polymerase enzyme blocking moiety” (GE Healthcare UK Limited, priority 2000, dated 2006).

Legend:
Type in all cases: biochemical
Taq DNA polymerase = biological target: T1, Taq DNA polymerase (Thermus aquaticus, UniProt P19821); experiment: Thermostable DNA polymerase primer extension, Taq; design: key to result of incorporation (termination / further chain extension): T: Incorporation results in termination; E: Incorporation permits further chain extension; T/E: Predominant product is primer extended by one base, but evidence of some further extension also observed; details: DNA template, 45° C. for 20–40 minutes; for primer extended by at least one base within assay time (grade): TTP replaced entirely by test compound
T1 construct: purchased APBiotech
T1 sequence (P19821 whole entry): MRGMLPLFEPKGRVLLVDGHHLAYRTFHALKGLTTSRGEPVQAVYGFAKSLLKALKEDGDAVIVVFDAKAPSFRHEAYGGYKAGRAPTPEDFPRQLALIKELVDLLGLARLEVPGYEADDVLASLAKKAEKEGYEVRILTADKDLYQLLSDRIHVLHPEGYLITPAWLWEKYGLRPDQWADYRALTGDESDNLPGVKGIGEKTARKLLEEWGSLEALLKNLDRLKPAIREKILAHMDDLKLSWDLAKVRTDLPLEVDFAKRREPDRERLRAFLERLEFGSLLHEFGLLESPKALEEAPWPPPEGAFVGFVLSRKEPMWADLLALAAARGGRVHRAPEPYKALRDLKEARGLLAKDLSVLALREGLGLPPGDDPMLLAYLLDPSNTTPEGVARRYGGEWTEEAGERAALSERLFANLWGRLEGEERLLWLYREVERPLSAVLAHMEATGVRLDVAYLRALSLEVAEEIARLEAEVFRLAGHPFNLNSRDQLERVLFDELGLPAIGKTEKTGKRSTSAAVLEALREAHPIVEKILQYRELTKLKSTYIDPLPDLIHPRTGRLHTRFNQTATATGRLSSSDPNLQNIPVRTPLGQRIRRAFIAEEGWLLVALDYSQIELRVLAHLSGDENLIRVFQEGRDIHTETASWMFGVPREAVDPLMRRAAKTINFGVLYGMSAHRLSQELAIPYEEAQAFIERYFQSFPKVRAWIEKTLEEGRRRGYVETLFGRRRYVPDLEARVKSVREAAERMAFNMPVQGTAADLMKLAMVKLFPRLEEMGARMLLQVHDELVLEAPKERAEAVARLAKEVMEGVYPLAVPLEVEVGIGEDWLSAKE
Procedure: (§1) DNA polymerase assays were performed using Sequence 1 as primer and Sequence 2 as template. • Sequence 1 5′[Cy3]TAACTCATTAACAGGATC 3′ • Sequence 2 5′AT TCGCGGTATTCTGGTATGAAGCTTTTAGATCCTGTTAATGAGTTA GTA3′
(§2) The template (Sequence 2) was designed such that the base (underlined) immediately adjacent to the 3′ end of the hybridised primer is complementary to the nucleotide test compound. Nucleotide test compounds were compounds (6) (4′-C-(glycylaminomethyl)thymidine triphosphate), (8) (4′-C-(N-trifluoroacetyaminomethyl)thymidine triphosphate) and (9) (4′-C-(aminomethyl)thymidine triphosphate) as described above.
(§3) Primer extension reactions were performed using the above primers in the presence of 40 to 80 μM of nucleotide triphosphates. Positive control reactions contained all four native nucleotide triphosphates. For the other reactions the TTP was replaced with either a 2:1 ratio of […] for the terminator control, or entirely by the test compound The enzymes were used at a final concentration of 0.175 units/μl and a magnesium ion concentration of 2.5 mM in buffers supplied by the manufacturer. The primer and template concentrations were 0.5 pmol/μl and 2 pmol/μl respectively.
(§4) Extension reactions with thermophilic enzymes were performed by initially denaturing the fully assembled reactions at 70° C. for 5 min. followed by 45° C. for 20–40 minutes. The following enzymes were used: Taq DNA polymerase (Taq); Thermosequenase (TS); Thermosequenase II (TSII); Thermosequenase E (TSE), Tfl DNA polymerase (Tfl); Tth DNA polymerase (Tth), deltaTts DNA polymerase (deltaTts), deltaTts D DNA polymerase (dettaTTSD) (all from APBiotech); Pfu DNA polymerase (Pfu) (Stratagene Ltd); Vent™ DNA polymerase (Vent) (New England Biolabs).
(§5) The reactions were stopped by adding a 0.5 volume aliquot of 80% formamide containing 0.1% (w/v) bromophenol blue and 0.1% (w/v) cresol blue. The reaction products were separated by denaturing gel electrophoresis at a constant power of 45 W on 16% polyacrylamide gels containing 50% urea.
(§6) Gels were scanned for Cy3 fluorescence on a Molecular Dynamics Fluorimager and the data analysed using Molecular Dynamics ImageQuant 5 software.
(§7) The incorporation of a test nucleotide triphosphate results in the appearance on a polyacrylamide gel of a single band corresponding to a single base extension product. If, however, the enzyme adds additional bases then further bands would be observed that corresponded to either the full-length product or positions of other complementary bases in the template.

Tfl DNA polymerase = biological target: T2, Tfl DNA polymerase (Thermus thermophilus, UniProt P30313); experiment: Thermostable DNA polymerase primer extension, Tfl; design: key to result of incorporation (termination / further chain extension): T: Incorporation results in termination; E: Incorporation permits further chain extension; T/E: Predominant product is primer extended by one base, but evidence of some further extension also observed; details: DNA template, 45° C. for 20–40 minutes; for primer extended by at least one base within assay time (grade): TTP replaced entirely by test compound
T2 construct: purchased APBiotech
T2 sequence (P30313 whole entry): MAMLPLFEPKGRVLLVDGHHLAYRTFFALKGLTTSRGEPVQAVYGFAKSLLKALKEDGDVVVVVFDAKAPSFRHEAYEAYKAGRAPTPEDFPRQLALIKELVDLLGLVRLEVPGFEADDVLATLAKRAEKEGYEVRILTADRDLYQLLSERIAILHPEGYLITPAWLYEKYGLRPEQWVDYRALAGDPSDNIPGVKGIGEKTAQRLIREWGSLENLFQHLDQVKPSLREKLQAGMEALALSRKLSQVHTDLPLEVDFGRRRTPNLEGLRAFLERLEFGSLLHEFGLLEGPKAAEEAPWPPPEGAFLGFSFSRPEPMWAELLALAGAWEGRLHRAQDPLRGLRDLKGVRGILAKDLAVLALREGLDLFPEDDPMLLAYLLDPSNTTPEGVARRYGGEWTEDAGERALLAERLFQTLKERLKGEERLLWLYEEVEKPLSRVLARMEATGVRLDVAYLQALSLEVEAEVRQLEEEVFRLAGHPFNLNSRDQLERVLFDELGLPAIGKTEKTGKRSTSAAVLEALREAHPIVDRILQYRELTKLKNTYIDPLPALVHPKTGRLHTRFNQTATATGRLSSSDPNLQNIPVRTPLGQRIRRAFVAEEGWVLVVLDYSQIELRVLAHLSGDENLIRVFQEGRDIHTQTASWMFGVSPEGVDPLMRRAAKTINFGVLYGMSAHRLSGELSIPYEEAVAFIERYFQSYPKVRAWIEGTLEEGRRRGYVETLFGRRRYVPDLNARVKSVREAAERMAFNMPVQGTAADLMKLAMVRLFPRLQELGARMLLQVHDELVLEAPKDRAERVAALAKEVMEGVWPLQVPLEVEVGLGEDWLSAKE
Procedure: as §1, §2, §3, §4, §5, §6, §7

[1] = biological target: T3, Klenow fragment of DNA polymerase 1 (Escherichia coli, UniProt P00582); experiment: Mesophilic DNA polymerase primer extension, Klen; design: key: −: No extension within assay time; +/−: up to 25% of primer extended by at least one base within assay time; +: up to 50% of primer extended by at least one base within assay time; ++: up to 75% of primer extended by at least one base within assay time; +++: essentially all primer extended by at least one base within assay time; details: DNA template, TTP replaced entirely by test compound, 37° C. for 20–40 minutes
T3 construct: Klenow fragment of DNA polymerase 1 (Klen); purchased AP Biotech
T3 sequence (P00582 324-928): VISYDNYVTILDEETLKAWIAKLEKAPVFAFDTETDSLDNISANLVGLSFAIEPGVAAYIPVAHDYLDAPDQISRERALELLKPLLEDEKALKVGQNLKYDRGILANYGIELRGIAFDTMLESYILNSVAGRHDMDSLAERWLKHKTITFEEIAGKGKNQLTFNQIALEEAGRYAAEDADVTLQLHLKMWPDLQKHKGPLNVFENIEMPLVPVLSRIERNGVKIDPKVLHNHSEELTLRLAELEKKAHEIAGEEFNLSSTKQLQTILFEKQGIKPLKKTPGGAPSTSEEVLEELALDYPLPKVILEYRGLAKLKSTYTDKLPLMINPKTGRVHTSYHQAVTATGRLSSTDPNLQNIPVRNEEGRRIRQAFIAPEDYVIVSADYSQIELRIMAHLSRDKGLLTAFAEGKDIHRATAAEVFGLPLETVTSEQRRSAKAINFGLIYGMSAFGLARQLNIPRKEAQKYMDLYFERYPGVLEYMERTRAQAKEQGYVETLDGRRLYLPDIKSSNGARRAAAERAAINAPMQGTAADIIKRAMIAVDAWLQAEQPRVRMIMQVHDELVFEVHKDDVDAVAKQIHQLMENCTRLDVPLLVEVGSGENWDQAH
Procedure: as §1, §2, §3
Extension reactions preformed with mesophilic polymerases were carried out by mixing all the components of the reaction except the enzyme and heating to 70° C. for 5 min. After the reactions had cooled to room temperature 0.175 units of the enzyme were added and the reactions heated to 37° C. for 20–40 minutes. The following enzymes were used: T7 DNA polymerase (T7); Sequenase 2™ (Seq); Klenow fragment of DNA polymerase 1 (Klen); phi-29 DNA polymerase (Phi-29); T4 DNA polymerase (T4) (all from AP Biotech) and Bst DNA polymerase (Bst) (Cambio Ltd).
The reactions were stopped by adding a 0.5 volume aliquot of 80% formamide containing 0.1% (w/v) bromophenol blue and 0.1% (w/v) cresol blue. […]
Gels were scanned for Cy3 fluorescence on a Molecular Dynamics Fluorimager and the data analysed using Molecular Dynamics ImageQuant 5 software. […]

Thermosequenase II = experiment: Thermostable polymerase under reverse transcription conditions, TS II; design: key to result of incorporation (termination / further chain extension): T: Incorporation results in termination; E: Incorporation permits further chain extension; T/E: Predominant product is primer extended by one base, but evidence of some further extension also observed; details: RNA template, 2.5 mM Manganese ions; for primer extended by at least one base within assay time (grade): Tth reaction buffer
Procedure: as §1, §2, §3, §4
(§8) Reverse transcriptase reactions were performed essentially as described above for thermophilic and mesophilic enzymes. The template for these reactions was the RNA equivalent of sequence 2. All the thermophilic enzymes were assayed in Tth reaction buffer (Cambio Ltd, Cambridge UK) containing 2.5 mM Manganese ions. The following enzymes were used: Thermosequenase (TS1); Thermosequenase II (TSII); delta Tts DNA polymerase (deltaTts); delta Tts D DNA polymerase (deltaTtsD) (all from APBiotech); Retrotherm reverse transcriptase (Retroth) (Cambio Ltd); Tth DNA polymerase (Tth) (Cambio Ltd.).
as §5, §6, §7

[2] = test system: Retrotherm reverse transcriptase; experiment: Thermostable polymerase under reverse transcription conditions, Retroth.; design: key to result of incorporation (termination / further chain extension): T: Incorporation results in termination; E: Incorporation permits further chain extension; T/E: Predominant product is primer extended by one base, but evidence of some further extension also observed; key to primer extended by at least one base within assay time (grade): −: No extension within assay time; +/−: up to 25% of primer extended by at least one base within assay time; +: up to 50% of primer extended by at least one base within assay time; ++: up to 75% of primer extended by at least one base within assay time; +++: essentially all primer extended by at least one base within assay time; details: RNA template, 2.5 mM Manganese ions; for primer extended by at least one base within assay time (grade): Tth reaction buffer
Procedure: as §1, §2, §3, §4, §8, §5, §6, §7

delta Tts DNA polymerase = experiment: Thermostable polymerase under reverse transcription conditions, delta Tts; design: key to result of incorporation (termination / further chain extension): T: Incorporation results in termination; E: Incorporation permits further chain extension; T/E: Predominant product is primer extended by one base, but evidence of some further extension also observed; key to primer extended by at least one base within assay time (grade): −: No extension within assay time; +/−: up to 25% of primer extended by at least one base within assay time; +: up to 50% of primer extended by at least one base within assay time; ++: up to 75% of primer extended by at least one base within assay time; +++: essentially all primer extended by at least one base within assay time; details: RNA template, 2.5 mM Manganese ions; for primer extended by at least one base within assay time (grade): Tth reaction buffer
Procedure: as §1, §2, §3, §4, §8, §5, §6, §7

Compound | result of incorporation (termination / further chain extension) (Taq DNA polymerase) | primer extended by at least one base within assay time (grade) (Taq DNA polymerase) | result of incorporation (termination / further chain extension) (Tfl DNA polymerase) | primer extended by at least one base within assay time (grade) (Tfl DNA polymerase) | primer extended by at least one base within assay time (grade) [1] | result of incorporation (termination / further chain extension) (Thermosequenase II) | primer extended by at least one base within assay time (grade) (Thermosequenase II) | result of incorporation (termination / further chain extension) [2] | primer extended by at least one base within assay time (grade) [2] | result of incorporation (termination / further chain extension) (delta Tts DNA polymerase) | primer extended by at least one base within assay time (grade) (delta Tts DNA polymerase)
4′-C-(Aminomethyl)thymidine triphosphate [compound (9)] | T | +/− (up to 25% of primer extended by at least one base within assay time) | T | +/− (up to 25% of primer extended by at least one base within assay time) | − | E | ++ (up to 75% of primer extended by at least one base within assay time) | E | +++ | T | +++
4′-C-(Glycylaminomethyl)thymidine triphosphate [compound (6)] | T | +/− (up to 25% of primer extended by at least one base within assay time) | T | +/− (up to 25% of primer extended by at least one base within assay time) | − | E | + (up to 50% of primer extended by at least one base within assay time) | E | ++ (up to 75% of primer extended by at least one base within assay time) | T | +++
Cc1cn([C@H]2C[C@H](O)[C@@](CNC(=O)C(F)(F)F)(COP(=O)(O)OP(=O)(O)OP(=O)(O)O)O2)c(=O)[nH]c1=O [compound (8), 4′-C-(N-trifluoroacetylaminomethyl)thymidine triphosphate] | T | +/− (up to 25% of primer extended by at least one base within assay time) | T | +/− (up to 25% of primer extended by at least one base within assay time) | − | E | + (up to 50% of primer extended by at least one base within assay time) | E | ++ (up to 75% of primer extended by at least one base within assay time) | T | +++
